Laboratory results from patent publication US9216962B2 (priority 2011, dated 2015).

Target: recombinant human HDAC1 (Homo sapiens (Human), UniProt Q13547)
Details: for IC50: read-out: HDAC1 IC50

recombinant human HDAC1, sequence (Q13547 whole entry): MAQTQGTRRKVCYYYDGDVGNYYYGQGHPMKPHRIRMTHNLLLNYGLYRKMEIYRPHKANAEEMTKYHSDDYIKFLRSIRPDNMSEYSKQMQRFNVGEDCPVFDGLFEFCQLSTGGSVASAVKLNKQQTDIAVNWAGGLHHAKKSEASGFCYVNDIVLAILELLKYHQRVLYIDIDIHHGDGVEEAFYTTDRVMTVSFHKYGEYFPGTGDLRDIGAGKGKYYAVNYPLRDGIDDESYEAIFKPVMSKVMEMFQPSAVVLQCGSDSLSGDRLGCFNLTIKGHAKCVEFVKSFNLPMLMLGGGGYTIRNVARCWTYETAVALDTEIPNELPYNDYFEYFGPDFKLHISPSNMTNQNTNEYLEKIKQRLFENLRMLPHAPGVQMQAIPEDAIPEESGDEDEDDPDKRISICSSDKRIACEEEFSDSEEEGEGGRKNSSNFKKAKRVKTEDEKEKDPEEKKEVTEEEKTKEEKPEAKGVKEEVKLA

| Compound | IC50 [nM] | HDAC1 IC50 |
| --- | --- | --- |
| C=Cc1sc(-c2nccs2)nc1C(=O)NCCCNC(=O)CS [CFH367-S] | 1830 |  |
| O=C(CCCCNC(=O)c1nc(-c2ncc(-c3ccccc3)s2)sc1C1CC1)NO [CFH443-5] | 32 |  |
| Cc1nc(-c2nc(C(=O)NCCCCC(=O)NO)c(CC(C)C)s2)cs1 [CFH397] | 438 |  |
| CC(C)Cc1sc(-c2nccs2)nc1C(=O)NCCCCC(=O)Nc1ccccc1N [CFH494] | 5910 |  |
| CC(C)Cc1sc(-c2nccs2)nc1C(=O)Nc1cccc(/C=C/C(=O)NO)c1 [CFH429] | 657 |  |
| Cc1nc(-c2nc(C(=O)NCCCCC(=O)NO)c(C3CC3)s2)sc1C [CFH395-M] | 50 |  |
| CC(C)/C=C/c1sc(-c2nccs2)nc1C(=O)NCCCNC(=O)CS [CFH411] | 956 |  |
| CC(C)Cc1sc(-c2nccs2)nc1C(=O)NCCCCCCC(=O)Nc1ccccc1N [CFH522] | 15300 |  |
| Cc1cnc(-c2nc(C(=O)NCCCCC(=O)NO)c(CC(C)C)s2)s1 [CFH397-2] | 917 |  |
| CC(C)Cc1sc(-c2nccs2)nc1C(=O)NCCCCCCC(=O)NO [CFH410] | 178 |  |
| CC(C)Cc1sc(-c2nccs2)nc1C(=O)NCC(=O)NO [CFH340] |  | NA^a |
| CC(C)Cc1sc(-c2nccs2)nc1C(=O)NCCCCCC(=O)Nc1ccccc1N [CFH508] | 984 |  |
